Experimental data published in patent publication US8716530B2, “Facially amphiphilic polyaryl and polyarylalkynyl polymers and oligomers and uses thereof” (The Trustess of the University of Pennsylvania, priority 2004, dated 2014).
Values after ≈ are worked out from the molar mass of the structure shown. Values joined by “and” are separate entries in the source; they are usually repeats but may differ in a detail not shown here. Identical values can stand only once.

Key:
Klebsiella pneumoniae = format: cell-based
[1] = system: Lovenox inhibition of Factor Xa (FXa) activity; experiment: Chromogenic FXa assay: antagonism of Lovenox inhibition of Factor Xa; format: biochemical; settings: fixed concentration of Lovenox, chromogenic substrate S-2765
Method: To assess the potential of the phenylalkynyl oligomers to act as antagonists of the low molecular weight heparins (LMWH), Compound 3 was assayed for its ability to antagonize the inhibition of Factor Xa (FXa) activity by the LMWH Lovenox was determined for Compound 3. Briefly, FXa activity in the presence of Lovenox and inhibitor was measured in a chromogenic assay using reagents purchased from DiaPharma. […] In the assay setup for Schild-plot analysis (KB determination), varying concentrations of Lovenox were incubated with AT for 5 minutes. Different concentrations of inhibitor were added to each row of wells, to construct curves of fixed inhibitor concentration, and lightly shaken and incubated for 20 minutes. FXa was then added and reaction was shaken and incubated for 10 minutes. The substrate (S-2765) was then added to initiate the clotting cascade and the 96-well plate was then shaken and read every 30 seconds for 7 minutes at 405 nm on a ThermoLabsystems Multiskan Spectrum. The single curve Lovenox titration experiments (IC50 determination) consisted of the same procedure, but with a fixed concentration of Lovenox (determined by a titration curve in the absence of inhibitor). The analysis of each curve was performed using GraphPad Prism version 4.00 for Windows.

S. aureus = format: cell-based; settings: S. aureus passaged at 0.5x MIC100; by passage 16 (17 consecutive passages)
[2] = system: Staphylococcus epidermidis; format: cell-based
Proteus mirabilis = format: cell-based
Staphylococcus aureus = format: cell-based
Salmonella typhimurium = format: cell-based
Serratia marcescens = format: cell-based
Candida albicans = experiment: MIC100, clinical isolates of hospital-acquired pathogens (Table 7); format: cell-based; settings: one table line per isolate, RPMI synthetic medium, in µg/mL
B. anthracis = experiment: microbe, parasite or virus in culture; format: cell-based, Bacillus anthracis

NCCc1cc(Br)cc(C#Cc2cccc(C#Cc3cc(Br)cc(CCN)c3)c2)c1 [Compound 3]
MIC100 Klebsiella pneumoniae (Klebsiella pneumoniae): 1.7 µg/mL (≈ 3.25 µM) | IC50 [1]: 5.07 µM | increase in MIC on serial passage (S. aureus): No consistent increase in the MIC | MIC100 Staphylococcus epidermidis [2]: 0.8 µg/mL (≈ 1.53 µM) | MIC100 Proteus mirabilis (Proteus mirabilis): > 6.6 µg/mL | MIC100 Staphylococcus aureus (Staphylococcus aureus): 1.7 µg/mL (≈ 3.25 µM) | MIC100 Salmonella typhimurium (Salmonella typhimurium): 3.4 µg/mL (≈ 6.51 µM) | MIC100 Serratia marcescens (Serratia marcescens): 3.4 µg/mL (≈ 6.51 µM) | mic (MIC100) Candida albicans (Candida albicans): 0.5 and 1 | MIC (B. anthracis; Bacillus anthracis, 24 h, read-out: MIC100 B. anthracis (24 hr)): 1 µg/mL (≈ 1.91 µM) | Time course of growth inhibition of Bacillus anthracis (B. anthracis; growth recorded at 2 hour intervals over 24 hours (FIG. 3)): complete inhibition of growth at early and late time points
